Source: patent publication US20110076258A1, “METHODS OF MODULATING T CELL- DEPENDENT IMMUNE RESPONSES” (Converge Biotech Inc., priority 2008, published 2011)
Entries after “also recorded” stand apart in the source; their conditions may differ. Where two headings read alike, the source gives them in different places.

Experiments:
ERK = ERK phosphorylation time course after CD3 stimulation, TCR signaling blocked with PP2 at 30 min; assay type: cell-based, mouse; conditions: for ERK phosphorylation / activity: added in combination with PP2
Protocol: (§1) After 30 min of stimulation, cells were either left untreated (first panel on the left), or treated with the src-like kinase inhibitor PP2 either alone (second panel) or in combination with oATP (third panel) or ARL (fourth panel).
(§2) In order to distinguish between TCR dependent and independent ERK activation, TCR signaling was blocked at 30 min after CD3 activation with the tyrosine kinase inhibitor PP2, which inhibits TCR dependent Ick/fyn src-like kinase activity.

ZAP-70 = ZAP-70 phosphorylation after CD3 stimulation, PP2 added at 30 min; assay type: cell-based, mouse; conditions: PP2 at 30 min after CD3 activation
Protocol: as §1, §2

CRAC channels = experiment: Ca2+ dependent CRAC inactivation, two sequential Ca2+ additions after tapsigargin store depletion (Fura-2); assay type: cell-based, mouse; conditions: in the presence of CCCP
Protocol: FIG. 1: Increased mitochondrial Ca^2+ buffering in crt^−/− T cells. • a) After ER Ca^2+ depletion with tapsigargin, CCE was induced in crt^−/− and crt^+/+ T cell clones by the addition of 0.5 mM Ca^2+ to the extracellular medium (see Example 1). After complete washout of extracellular Ca^2+, the mitochondrial Ca^2+ buffering was visualized by the addition of ionomycin. • b) Histograms representing mitochondrial Ca^2+ content after CCE with 0.5, 1 and 2 mM extracellular Ca^2+ in crt^−/− and crt^+/+ T cell clones. • c) Increased mitochondrial Ca^2+ buffering in crt^−/− T cells retards CRAG inactivation. Cells were treated with tapsigargin followed by two separate additions of Ca^2+ to the extracellular medium (see Example 1) (see also FIG. 2C). The rate of rise of cytosolic Ca^2+ concentration was calculated at the first and second addition of Ca^2+. […] (*, P<0.05, **, P<0.001, ***, P<0.0001)
FIG. 2: Reduced Ca^2+ in the ER, unaltered mitochondrial membrane potential and decreased CRAC inactivation in crt^−/− T cells. • a) The ER Ca^2+ content of Fura-2 loaded D011.10 TCR transgenic T cell clones was assessed by addition of the SERCA pump inhibitor tapsigargin to a medium devoid of Ca^2+ (see Example 1). The passive leak of Ca^2+ from the ER into the cytosol is seen as a slow transient rise in the cytosolic Ca^2+ concentration. […]

naïve CD4^+ T cells [1] = experiment: IL-2 ELISA in culture supernatants, plate-bound CD3 and CD28 stimulation; assay type: cell-based, mouse
Source text: An inhibitory effect of oATP on peripheral blood T cell proliferation has been described (Baricordi et al., Blood 87:682-690 (1996)). […] We therefore hypothesize that ATP released from activated T cell is part of an autocrine loop, which plays an essential role in productive T cell activation.

naive CD4 T cells = experiment: T cell proliferation by CFSE dilution, plate-bound CD3 and CD28 mAbs; assay type: cell-based, mouse; conditions: IL-2 at 250 U/ml; PMA
Egr2 and Egr3 = experiment: Real-time PCR of anergy related genes Egr2 and Egr3; assay type: cell-based, mouse; conditions: PMA together with oATP
Source text: NFAT nuclear translocation without concomitant MAPK activation, which can be obtained by ionomycin treatment, implements a transcriptional program leading to T cell anergy (Macian et al., Cell 109:719-731 (2002)). […] Then, we hypothesized that activation of T cells in the presence of oATP could induce T cell anergy. […] The effect of oATP was not due to altered turn-over of the TCR/CD3 complex at the cell surface, as determined by FACS analysis (data not shown).

DO11.10 T cell clones = experiment: Ca2+ imaging with P2 receptor agonists; assay type: cell-based, mouse
MAPK = experiment: Protracted MAPK (p38, Erk) activation after 16 h CD3 stimulation; assay type: cell-based, mouse; conditions: crt^−/− T cells, CD3 antibodies 16 h
NFAT1 = NFAT1 nuclear localization after T cell stimulation; assay type: cell-based, mouse
Protocol: as §2
NFAT nuclear translocation without concomitant MAPK activation, which can be obtained by ionomycin treatment, implements a transcriptional program leading to T cell anergy (Macian et al., Cell 109:719-731 (2002)). […] Then, we hypothesized that activation of T cells in the presence of oATP could induce T cell anergy.

crt^−/− CD4^+ T cells [2] = system: crt^−/− CD4^+ T cells
human T cells = experiment: Proliferation of CFSE-loaded T cells, plate-bound anti-CD3/28 (FACS); assay type: cell-based; conditions: 100 μM oATP or 200 μM of PX10 peptide, four days
Protocol: Our results point to a role for pannexin hemichannels in ATP release in T cells. […] CFSE-loaded human T cells were stimulated with plate-bound anti-CD3/28 antibodies in the presence of 100 μM oATP or 200 μM of PX10 peptide. Four days later, the proliferation was measured by FACS analysis.

mouse T cells = experiment: IL-2 secretion by ELISA; assay type: cell-based
T cell clones = experiment: Cellular ATP content by luciferase assay after TCR triggering; assay type: cell-based; conditions: 200 μM PX10 preincubation 30 minutes
Protocol: FIG. 10: The pannexin blocking peptide PX10 increases the intracellular ATP concentration upon TCR triggering.
Finally, we tested whether the inhibition of pannexin-mediated ATP release might lead to a fast accumulation of ATP following T cell activation. T cell clones were preincubated with 200 μM PX10 for 30 minutes. They were then stimulated with biotinylated anti-CD3 antibodies followed by crosslinking with strepavidine. Samples were collected at indicated time points, detergent-solubilized and frozen until their use in a standard luciferase assay to determine cellular ATP content.

naïve CD4^+ T cells [3] = experiment: ATP synthesis after T cell activation with CD3 antibodies; assay type: cell-based, mouse
Source text: CCE induced by antigenic activation of crt^−/− CD4^+ T cells might therefore be linked to a higher ATP production compared to crt^+/+ cells.

crt^−/− CD4^+ T cells [4] = experiment: Propidium iodide (PI) staining of treated cells

CC(C)(C)n1nc(-c2ccc(Cl)cc2)c2c(N)ncnc21 [PP2]
ERK phosphorylation at later time points (ERK; PP2 alone): did not significantly affect; also recorded: less affected | TCR-dependent phosphorylation of ZAP-70 (ZAP-70): affected; also recorded: efficiently inhibited

CCN(CC)c1ncnc2c1ncn2[C@@H]1O[C@H](COP(=O)(O)OP(=O)(O)C(Br)(Br)P(=O)(O)O)[C@@H](O)[C@H]1O [ARL67156]
ERK phosphorylation / activity (ERK): increase | ERK phosphorylation / activity (ERK; listed as ARL): increased

N#CC(C#N)=NNc1cccc(Cl)c1 [CCCP]
Ca^2+ dependent inactivation of CRAC channels, crt^−/− versus crt^+/+ cells (CRAC channels): comparable

CCCCCCCCCCCCCC(=O)O[C@@H]1[C@@H](C)[C@@]2(O)[C@@H](C=C(CO)C[C@]3(O)C(=O)C(C)=C[C@@H]23)[C@@H]2C(C)(C)[C@]12OC(C)=O [PMA, phorbol 12-myristate 13-acetate, reference compound]
oATP and PPADS-dependent inhibition of IL-2 expression on addition of PMA (naïve CD4^+ T cells [1]; contemporaneous addition): rescued | oATP inhibition of T cell proliferation on addition of second agent (naive CD4 T cells): completely restored | Egr2 and Egr3 transcription (Egr2 and Egr3): robustly reduced

BzATP
cells activated / responsive to P2 subtype preferring agonist (DO11.10 T cell clones): 33%

Cc1nc(N=Nc2ccc(S(=O)(=O)O)cc2S(=O)(=O)O)c(COP(=O)(O)O)c(C=O)c1O [PPADS]
prolonged activation of MAPK (p38 MAPK and Erk) (MAPK): almost completely abolished | nuclear localization of NFAT1 (NFAT1): did not significantly affect | ERK phosphorylation / activity (ERK): significant inhibition | IL-2 in the cell culture supernatant (naïve CD4^+ T cells [1]; versus untreated cells, 48 h): Analogous inhibition | cellular damage due to toxicity, PI staining versus untreated (crt^−/− CD4^+ T cells [2]): did not reveal any difference

CSc1nc(N)c2ncn([C@@H]3O[C@H](COP(=O)(O)OP(=O)(O)O)[C@@H](O)[C@H]3O)c2n1 [2MeSADP]
cells activated / responsive to P2 subtype preferring agonist (DO11.10 T cell clones): 31%

Nc1ncnc2c1ncn2[C@@H]1O[C@H](COP(=O)(O)OP(=O)(O)OP(=O)(O)O)[C@@H](O)[C@H]1O [ATP, adenosine triphosphate]
cells with calcium rise (DO11.10 T cell clones; 1 mM ATP, Ca^2+ present in the extracellular medium): 52% | cytosolic calcium rise (DO11.10 T cell clones; absence of extracellular Ca^2+): moderate cytosolic calcium rise

WRQAAFVDSY [PX10]
T cell proliferation (human T cells): comparably to oATP | T cell proliferation (human T cells; listed as PX10 peptide): strongly inhibited | IL-2 secretion (mouse T cells): strongly inhibited | intracellular ATP after TCR triggering (T cell clones): rapid intracellular rise of ATP; also recorded: increases

CC[C@H]1/C=C/C=C/C[C@@H](C)[C@H](O)[C@@](C)(O)C(=O)[C@@H](C)[C@H](O)[C@@H](C)C(=O)[C@@H](C)[C@H](O)[C@@H](C)/C=C/C(=O)O[C@@H]2[C@H](C)[C@H](CC1)O[C@]1(CC[C@H](C)[C@H](C[C@@H](C)O)O1)[C@H]2C [oligomycin]
activation induced ATP synthesis (naïve CD4^+ T cells [3]): abolished | prolonged activation of MAPK (p38 MAPK and Erk) (MAPK): almost completely abolished | nuclear localization of NFAT1 (NFAT1): did not significantly affect | cellular damage due to toxicity, PI staining versus untreated (crt^−/− CD4^+ T cells [4]): did not reveal any difference

CSc1nc(N)c2ncn([C@@H]3O[C@H](COP(=O)(O)OP(=O)(O)OP(=O)(O)O)[C@@H](O)[C@H]3O)c2n1 [MeSATP]
cells activated / responsive to P2 subtype preferring agonist (DO11.10 T cell clones): 35%

Nc1ncnc2c1ncn2[C@@H]1O[C@H](COP(=O)(O)CP(=O)(O)OP(=O)(O)O)[C@@H](O)[C@H]1O [αβMeATP]
cells activated / responsive to P2 subtype preferring agonist (DO11.10 T cell clones): 18%
